Reference: PubChem BioAssay AID256 (DTP/NCI, 2004)
Inconclusive results and toxic doses are left out. How the source made its calls: active means survival T/C of 150% or more; inactive means T/C below 125% in these data.

Test system: CD2F1 mice, L1210 leukemia ip, survival T/C
Experiment: NCI In Vivo Anticancer Drug Screen. Data for tumor model L1210 Leukemia (intraperitoneal) in CD2F1 (CDF1) mice
Settings: higher = longer survival
How it was run: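 In this screen, transplantable tumors were grown in mice given either the compound or its vehicle. Results were expressed as the treated measurement relative to the control measurement.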

[1] = endpoint: mean survival time, dose: 100.0 mg/kg/injection, schedule: Q01DX009 (ip), vehicle: saline with Tween-80
[2] = endpoint: mean survival time, dose: 200.0 mg/kg/injection, schedule: Q01DX009 (ip), vehicle: saline with Tween-80
[3] = endpoint: mean survival time, dose: 400.0 mg/kg/injection, schedule: Q01DX009 (ip), vehicle: saline with Tween-80
[4] = endpoint: mean survival time, dose: 50.0 mg/kg/injection, schedule: Q01DX009 (ip), vehicle: saline with Tween-80
[5] = endpoint: mean survival time, dose: 100.0 mg/kg/injection, schedule: Q04DX003 (ip), vehicle: saline with Tween-80
[6] = endpoint: mean survival time, dose: 200.0 mg/kg/injection, schedule: Q04DX003 (ip), vehicle: saline with Tween-80
[7] = endpoint: mean survival time, dose: 400.0 mg/kg/injection, schedule: Q04DX003 (ip), vehicle: saline with Tween-80
[8] = endpoint: mean survival time, dose: 50.0 mg/kg/injection, schedule: Q04DX002 (ip), vehicle: saline with Tween-80
[9] = endpoint: mean survival time, dose: 100.0 mg/kg/injection, schedule: Q04DX003 (ip), vehicle: Klucel (hydroxypropylcellulose) (HPC)

Measured: T/C

O=C(Cc1nc2ccccc2[nH]c1=O)N/N=C/c1ccc2c(c1)CCC2
inactive: [1] 92 % of control | [2] 88 % of control | [3] 88 % of control

S=C1Nc2ccccc2CS1
inactive: endpoint: mean survival time, dose: 100.0 mg/kg/injection, schedule: Q01DX001 (ip), vehicle: Klucel (hydroxypropylcellulose) (HPC) 105 % of control | endpoint: mean survival time, dose: 200.0 mg/kg/injection, schedule: Q01DX001 (ip), vehicle: Klucel (hydroxypropylcellulose) (HPC) 102 % of control | endpoint: mean survival time, dose: 400.0 mg/kg/injection, schedule: Q01DX001 (ip), vehicle: Klucel (hydroxypropylcellulose) (HPC) 103 % of control

CC(=O)OC1CCC2(C)CCCC(O)C2(O)C1 (configuration not stated)
inactive: endpoint: mean survival time, dose: 25.0 mg/kg/injection, schedule: Q01DX009 (ip), vehicle: saline with Tween-80 103 % of control | [4] 116 % of control | [1] 107 % of control | endpoint: mean survival time, dose: 100.0 mg/kg/injection, schedule: Q04DX003 (ip), vehicle: acetone 101 % of control | endpoint: mean survival time, dose: 150.0 mg/kg/injection, schedule: Q01DX009 (ip), vehicle: saline 97 % of control | endpoint: mean survival time, dose: 225.0 mg/kg/injection, schedule: Q01DX009 (ip), vehicle: saline 100 % of control | endpoint: mean survival time, dose: 335.0 mg/kg/injection, schedule: Q01DX009 (ip), vehicle: saline 91 % of control

O=C(O)C1CCN1C1CCCCC1 (configuration not stated)
inactive: endpoint: mean survival time, dose: 100.0 mg/kg/injection, schedule: Q01DX009 (ip), vehicle: saline 98 % of control | [5] 103 % of control | endpoint: mean survival time, dose: 200.0 mg/kg/injection, schedule: Q01DX009 (ip), vehicle: saline 100 % of control | [6] 103 % of control | endpoint: mean survival time, dose: 400.0 mg/kg/injection, schedule: Q01DX009 (ip), vehicle: saline 98 % of control | [7] 100 % of control

O=C(O)CCC(NC(=O)OCc1ccccc1)C(=O)O (configuration not stated)
inactive: [1] 98 % of control | [2] 94 % of control | [3] 96 % of control

CC(=O)OCC1OC(n2ncc3c(NCc4ccco4)ncnc32)C(O)C1O (configuration not stated)
inactive: endpoint: mean survival time, dose: 25.0 mg/kg/injection, schedule: Q01DX009 (ip), vehicle: water 109 % of control | endpoint: mean survival time, dose: 50.0 mg/kg/injection, schedule: Q01DX009 (ip), vehicle: water 97 % of control | endpoint: mean survival time, dose: 100.0 mg/kg/injection, schedule: Q01DX009 (ip), vehicle: water 111 % of control | endpoint: mean survival time, dose: 200.0 mg/kg/injection, schedule: Q01DX009 (ip), vehicle: water 102 % of control | endpoint: mean survival time, dose: 400.0 mg/kg/injection, schedule: Q01DX009 (ip), vehicle: water 86 % of control

O=C(CCCN1CCC(O)(c2ccc(C(F)(F)F)cc2)CC1)c1ccc(N2CCC(O)CC2)cc1
inactive: endpoint: mean survival time, dose: 12.5 mg/kg/injection, schedule: Q04DX002 (ip), vehicle: saline with Tween-80 103 % of control | endpoint: mean survival time, dose: 25.0 mg/kg/injection, schedule: Q04DX002 (ip), vehicle: saline with Tween-80 103 % of control | [8] 103 % of control

COc1ccc(OC)c(C(O)CCc2cccc(N)c2)c1 (configuration not stated)
inactive: endpoint: mean survival time, dose: 100.0 mg/kg/injection, schedule: Q04DX002 (ip), vehicle: Klucel (hydroxypropylcellulose) (HPC) 93 % of control | endpoint: mean survival time, dose: 200.0 mg/kg/injection, schedule: Q04DX002 (ip), vehicle: Klucel (hydroxypropylcellulose) (HPC) 93 % of control | endpoint: mean survival time, dose: 400.0 mg/kg/injection, schedule: Q04DX002 (ip), vehicle: Klucel (hydroxypropylcellulose) (HPC) 97 % of control

COC(=O)c1ncccc1C(=O)O
inactive: [5] 94 % of control | [6] 86 % of control | [7] 86 % of control

CN(C)CCCc1c2ccccc2nc2ccc(Cl)cc12
inactive: endpoint: mean survival time, dose: 12.0 mg/kg/injection, schedule: Q04DX003 (ip), vehicle: saline 102 % of control | endpoint: mean survival time, dose: 25.0 mg/kg/injection, schedule: Q04DX003 (ip), vehicle: saline 94 % of control | endpoint: mean survival time, dose: 50.0 mg/kg/injection, schedule: Q04DX003 (ip), vehicle: saline 98 % of control

Oc1c(C(Nc2ccccc2)c2ccccc2)ccc2cccnc12 (configuration not stated)
inactive: endpoint: mean survival time, dose: 100.0 mg/kg/injection, schedule: Q01DX001 (ip), vehicle: saline 97 % of control | endpoint: mean survival time, dose: 200.0 mg/kg/injection, schedule: Q01DX001 (ip), vehicle: saline 97 % of control | endpoint: mean survival time, dose: 400.0 mg/kg/injection, schedule: Q01DX001 (ip), vehicle: saline 100 % of control

COc1ccc(C[C@H](N)C(=O)NC2C(CO)OC(n3cnc4c(N(C)C)ncnc43)C2O)cc1 (some centres not stated)
inactive: endpoint: median survival time, dose: 25.0 mg/kg/injection, schedule: Q01DX005 (ip), vehicle: water 104 % of control | endpoint: median survival time, dose: 50.0 mg/kg/injection, schedule: Q01DX005 (ip), vehicle: water 111 % of control | endpoint: median survival time, dose: 100.0 mg/kg/injection, schedule: Q01DX005 (ip), vehicle: water 100 % of control

Cc1ccc(NC(=O)Oc2cc(C)c(Cl)cc2C)c([N+](=O)[O-])c1
inactive: endpoint: mean survival time, dose: 100.0 mg/kg/injection, schedule: Q01DX009 (ip), vehicle: Klucel (hydroxypropylcellulose) (HPC) 106 % of control | endpoint: mean survival time, dose: 200.0 mg/kg/injection, schedule: Q01DX009 (ip), vehicle: Klucel (hydroxypropylcellulose) (HPC) 95 % of control | endpoint: mean survival time, dose: 400.0 mg/kg/injection, schedule: Q01DX009 (ip), vehicle: Klucel (hydroxypropylcellulose) (HPC) 92 % of control

Cc1cn(C2CC3OP(=O)(OCc4ccccc4)OCC3O2)c(=O)[nH]c1=O (configuration not stated)
inactive: endpoint: median survival time, dose: 12.5 mg/kg/injection, schedule: Q01DX005 (ip), vehicle: distilled water + Tween-80 100 % of control | endpoint: median survival time, dose: 25.0 mg/kg/injection, schedule: Q01DX005 (ip), vehicle: distilled water + Tween-80 101 % of control | endpoint: median survival time, dose: 50.0 mg/kg/injection, schedule: Q01DX005 (ip), vehicle: distilled water + Tween-80 102 % of control | endpoint: median survival time, dose: 100.0 mg/kg/injection, schedule: Q01DX005 (ip), vehicle: distilled water + Tween-80 104 % of control | endpoint: median survival time, dose: 200.0 mg/kg/injection, schedule: Q01DX005 (ip), vehicle: distilled water + Tween-80 98 % of control

CC1(C)OCC2OC3(C(=O)O)OC(C)(C)OC3C2O1 (configuration not stated)
inactive: endpoint: mean survival time, dose: 50.0 mg/kg/injection, schedule: Q01DX005 (ip), vehicle: saline with Tween-80 88 % of control | [4] 98 % of control | [8] 108 % of control | endpoint: mean survival time, dose: 100.0 mg/kg/injection, schedule: Q01DX005 (ip), vehicle: saline with Tween-80 88 % of control | [1] 95 % of control | endpoint: mean survival time, dose: 100.0 mg/kg/injection, schedule: Q04DX002 (ip), vehicle: saline with Tween-80 97 % of control | endpoint: mean survival time, dose: 200.0 mg/kg/injection, schedule: Q01DX005 (ip), vehicle: saline with Tween-80 92 % of control | [2] 92 % of control | endpoint: mean survival time, dose: 200.0 mg/kg/injection, schedule: Q04DX002 (ip), vehicle: saline with Tween-80 93 % of control | endpoint: mean survival time, dose: 400.0 mg/kg/injection, schedule: Q01DX005 (ip), vehicle: saline with Tween-80 88 % of control | [3] 88 % of control | endpoint: mean survival time, dose: 400.0 mg/kg/injection, schedule: Q04DX002 (ip), vehicle: saline with Tween-80 86 % of control

N=C(N)Cc1ccc(NC(=O)c2ccc(C(=O)Nc3ccc(CC(=N)N)cc3)cc2)cc1
inactive: endpoint: mean survival time, dose: 7.2 mg/kg/injection, schedule: Q01DX009 (ip), vehicle: acetone 102 % of control | endpoint: mean survival time, dose: 10.8 mg/kg/injection, schedule: Q01DX009 (ip), vehicle: acetone 121 % of control

Cc1ccc2[nH]c(=O)oc(=O)c2c1
inactive: [5] 104 % of control | [6] 98 % of control | [7] 106 % of control

O=S1Cc2ccccc2C1
inactive: [5] 98 % of control

CNC(=S)N/N=C/c1c(Cl)n(-c2ccccc2)c2c(/C=N/NC(=S)NC)cccc12
inactive: endpoint: mean survival time, dose: 25.0 mg/kg/injection, schedule: Q04DX003 (ip), vehicle: Klucel (hydroxypropylcellulose) (HPC) 96 % of control | endpoint: mean survival time, dose: 50.0 mg/kg/injection, schedule: Q04DX003 (ip), vehicle: Klucel (hydroxypropylcellulose) (HPC) 93 % of control | [9] 89 % of control

Cc1cc(OCCOC(=O)Nc2c(Cl)cccc2Cl)cc(C)c1Cl
inactive: [4] 92 % of control | [1] 100 % of control | [2] 107 % of control

Cc1cc(Br)c2nsnc2c1[N+](=O)[O-]
inactive: endpoint: median survival time, dose: 25.0 mg/kg/injection, schedule: Q01DX009 (ip), vehicle: saline with Tween-80 97 % of control | endpoint: median survival time, dose: 50.0 mg/kg/injection, schedule: Q01DX009 (ip), vehicle: saline with Tween-80 100 % of control | endpoint: median survival time, dose: 100.0 mg/kg/injection, schedule: Q01DX009 (ip), vehicle: saline with Tween-80 101 % of control | endpoint: median survival time, dose: 200.0 mg/kg/injection, schedule: Q01DX009 (ip), vehicle: saline with Tween-80 100 % of control | endpoint: median survival time, dose: 400.0 mg/kg/injection, schedule: Q01DX009 (ip), vehicle: saline with Tween-80 101 % of control

NC(CS)=NC1CN2CCC1CC2 (configuration not stated)
inactive: endpoint: mean survival time, dose: 50.0 mg/kg/injection, schedule: Q04DX002 (ip), vehicle: saline 115 % of control | endpoint: mean survival time, dose: 100.0 mg/kg/injection, schedule: Q04DX002 (ip), vehicle: saline 101 % of control

N#CCc1ccc2c(c1)Sc1ccccc1O2
inactive: [9] 108 % of control | endpoint: mean survival time, dose: 200.0 mg/kg/injection, schedule: Q04DX003 (ip), vehicle: Klucel (hydroxypropylcellulose) (HPC) 98 % of control | endpoint: mean survival time, dose: 400.0 mg/kg/injection, schedule: Q04DX003 (ip), vehicle: Klucel (hydroxypropylcellulose) (HPC) 100 % of control
